Laboratory results: patent publication US20240366594A1, “Small Molecule Inhibitors of Formation of Neutrophil-Derived Extracellular Traps (NETosis) and Uses Thereof” (The Brigham and Women's Hospital, Inc., priority 2021, published 2024)

Test system: human neutrophils
Assay: Citrullinated histone H3 (CitH3) NET induction in PMA-stimulated human neutrophils
Type: cell-based
Details: for NET induction, measured as CitH3 staining: drugs 10, 2, 0.4, 0.08 μM or GSK484 10 μM for 1 h, then 1 μM PMA 3 h, FIGS. 1A and 5D
Experimental: FIGS. 1A-H. Class I/II HDACs drive NET formation • (A and B) Freshly purified human (A) or mouse (B) neutrophils were treated with the indicated HDAC inhibitors at different doses (10, 2, 0.4, 0.08 μM), or with GSK484 (10 μM), for 1 h and then stimulated with 1 μM PMA for 3 h. Cells were fixed and stained with anti-citrullinated histone H3 (CitH3) antibody. NETosis induction was measured as the level of anti-CitH3 fluorescent signal. PMA alone represents 100% of NET induction. “-”: Cells treated with the highest dose of the indicated drug but not activated with PMA. • (C and D) Human neutrophils were treated, or not, with ricolinostat or GSK484 and then stimulated with 1 μM PMA. NETosis induction was measured as area of nuclei stained with DAPI. (C) 3D reconstruction of nuclei in each treatment (grid size 7.8 μm). (D) Quantification of DAPI signal from multiple fields of view (D) (n=9 for unstimulated, not pretreated with any drug [NT] and ricolinostat, n=7 for GSK484). • (E and F) Human neutrophils were treated as in (C-D), and immunoblot analysis of the indicated proteins was performed. Relative quantification of band intensity was analyzed with ImageJ software (F). White violins plots depict the quantification of histone H3 acetylation; red violin plots depict the quantification of histone H3 citrullination. Immunoblot in E is representative of four independent experiments. Gasdermin D NT, gasdermin D N terminal; pMLKL, phospho-MLKL. • (G) Human (left) or murine (right) neutrophils were treated, or not, with ricolinostat (10 μM) and then stimulated with 1 μM PMA for 3 h. ROS production was measured by luminescence with luminol-HRP. Histograms represent the total amount of ROS produced overtime. • (H) Murine neutrophils were treated, or not, with ricolinostat (10 μM) and then stimulated with fluorescent E. coli at the indicated multiplicity of infection (MOI) for 1 h. The histogram represents the percentage of neutrophils positive for E. coli staining. Graphs show mean±SEM. Statistics were calculated using one-way ANOVA (A, B, D) and two-way ANOVA (F, G, H) (*p<0.05; **p<0.01; ****p<0.0001. n.s., not significant). Statistics refers to the comparison with neutrophils stimulated with PMA alone (A, B). Gray stars represent comparison of all experimental groups with the unstimulated control, and black stars represent comparison between drug-treated groups and cells treated with PMA only (NT) (D). See also FIGS. 5A-J.
FIGS. 5A-J. Class I/II HDACs drive NET formation. • A) Quantification of extracellular DNA released by neutrophils treated, or not, with 1 μM GSK484 for 1 h and then stimulated with 1 μM PMA for 4 hours. Unstimulated, neutrophils not treated with drugs were used as a control. • B) Freshly purified human neutrophils were treated with the indicated HDAC inhibitors at different doses (0.08, 0.4, 2 and 10 μM) for 1 hour. Extracellular DNA release was assessed in the supernatant 3 hours after PMA stimulation. The dotted line represents the amount of DNA released from neutrophils treated with PMA alone. “-”: cells treated with the highest dose of the indicated drug but not activated with PMA. • C) Freshly purified human neutrophils were stimulated for 1 h, 3 h or 5 h. Cells were fixed and stained with an anti-CitH3 antibody. NETosis induction was measured as level of anti-CitH3 fluorescent signal. 5h-PMA treatment represents 100% NET induction. • D) Representative images of freshly isolated human neutrophils treated or not with 10 μM of the indicated drugs and stimulated with 1 μM PMA for 3 hours. Cells were fixed and then stained for CitH3 (red) and nuclei (blue). Scale bar=100 μm. • E) Murine neutrophils were treated with ricolinostat or GSK484 and then stimulated with […] for 3 hours. NET induction was measured as in (C). […]

| Structure (SMILES) | NET induction, measured as CitH3 staining | NET formation (level of CitH3), two independent donors (10, 2, 0.4, 0.08 μM for 1 h, then 1 μM PMA, FIGS. 5H, 5I) | NETosis (anti-CitH3 signal), comparison of class I/IIb and class IIb selective inhibitors (drugs 10, 2, 0.4, 0.08 μM 1 hour, then 1 μM PMA 3 hours, FIG. 5F) |
| --- | --- | --- | --- |
| COc1cc(C(=O)N2CC[C@@H](O)[C@@H](N)C2)cc2nc(-c3cc4ccccc4n3CC3CC3)n(C)c12 [GSK484] | dramatically reduced NET induction | – | – |
| O=C(CCCCCCNC(=O)c1cnc(N(c2ccccc2)c2ccccc2)nc1)NO [ricolinostat] | prevented NET release in a dose-dependent manner with an efficacy comparable with GSK484 | inhibited NET formation to a comparable extent | class I/IIb HDAC inhibition prevented NETosis |
